In article PMC6089501 (Journal of Medicinal Chemistry, 2018):
Values after ≈ are worked out from the molar mass of the structure shown.

Legend:
[1] = test system: M. tuberculosis QcrB T313I mutant strain; format: cell-based, Mycobacterium tuberculosis
[2] = test system: M. tuberculosis QcrB M342T mutant strain; format: cell-based, Mycobacterium tuberculosis

Compound	MIC T313I [1]	fold shift T313I [1]	MIC M342T [2]	fold shift M342T [2]
NC(=O)c1sc(N2CCOCC2)cc1OCCc1ccccc1 [Compound 1, 5-Morpholino-3-phenethoxythiophene-2-carboxamide]	53 µM (≈ 17.6 µg/mL)	41	25 µM (≈ 8.31 µg/mL)	19
CNC(=O)c1sc(N2CCOCC2)cc1OCCc1ccccc1 [Compound 21, N-Methyl-5-morpholino-3-(2-phenylethoxy)thiophene-2-carboxamide]	>20 µM	>250	4.8 µM (≈ 1.66 µg/mL)	60
NC(=O)c1sc(-c2ccncc2)cc1OCCc1ccccc1 [Compound 35, 3-(2-Phenylethoxy)-5-(4-pyridyl)thiophene-2-carboxamide]	>50 µM	>8.6	>20 µM	>3
NC(=O)c1sc(N2CCOCC2)cc1OCCc1ccc(OC(F)(F)F)cc1 [Compound 37, 5-Morpholino-3-[2-[4-(trifluoromethoxy)phenyl]ethoxy]thiophene-2-carboxamide]	11 µM (≈ 4.58 µg/mL)	46	–	–
NC(=O)c1sc(N2CCOCC2)cc1OCCc1cccc(F)c1 [Compound 39, 3-[2-(3-Fluorophenyl)ethoxy]-5-morpholinothiophene-2-carboxamide]	59 µM (≈ 20.7 µg/mL)	110	7 µM (≈ 2.45 µg/mL)	14
